Test results reported in publication PMC9396613 (ACS chemical biology, 2022).
Bridge positions count the residues as written; N and C are the ends. Ends that are not written are not given here.

Assays:
[1] = tested on: ET cells; assay: Flow-induced cytosolic Ca2+ measurements (Fura-2AM) in ET cells; assay type: cell-based, mouse; settings: 20 μM
[2] = target: T1, KCa2.3 channels (Homo sapiens, UniProt Q9UGI6); assay: Inside-out patch clamp, inhibition of KCa2.3 channels by negative modulator; assay type: cell-based; settings: read-out: IC50 for inhibition of KCa2.3 channels; 0.5 μM Ca2+; mean ± SD, n = 5
[3] = tested on: ET cells; assay: Cilia length measurement in ET cells by immunostaining; assay type: cell-based, mouse
[4] = target: T1, KCa2.3 channels; assay: Inside-out patch clamp, potentiation of human KCa2.3 channels expressed in HEK293 cells; assay type: cell-based
[5] = tested on: rat KCa2.2a channels; settings: read-out: EC50 on rat KCa2.2a (mean ± SD); cited from earlier work

CC(=O)Nc1cccc2[nH]c(N[C@H](C)c3cccc(C(F)(F)F)c3)nc12 [AP14145]
flow-induced peak Ca2+ values compared with control [1]: reduced | flow-induced cytosolic Ca2+ transients compared with control ([1]; shear stress 5 dyn/cm2): much weaker Ca^2+ transients | IC50 [2]: 970 ± 390 nM | cilia length ([3]; 20 μM for two days, acetylated-α-tubulin staining, mean ± SD): 2.8 ± 0.1 μm

Cc1cc(NC2CCCCC2)nc(-n2nc(C)cc2C)n1 [CyPPA]
Emax on KCa2.3 channels (I / Imax (%)) ([4]; current at −90 mV normalized to that obtained at 10 μM Ca2+, mean ± SD): 96 ± 10% | selectivity for human KCa2.3 channels over rat KCa2.2a channels ([4]; ratio of EC50 values, Table 1): ~ 2.7 fold | EC50 ([4]; read-out: EC50 on human KCa2.3 (mean ± SD), inside-out patch, HEK293 cells, 0.15 μM Ca2+, currents at −90 mV, mean ± SD): 2700 ± 600 nM | EC50 [5]: 7500 ± 1600 nM

Cc1cc(C)n(-c2nc(Nc3ccc(Cl)cc3)c3ncn(C)c3n2)n1 [NS13001]
EC50 [5]: 2200 ± 500 nM

apamin (CNCKAPETALCARRCQQH-NH2; disulfide 1-11, 3-15; UniProt P01500 28-45, looked up)
effect on cilia elongation by compound 4 ([3]; apamin 50 nM with compound 4 20 μM, Arl13b marker): completely abolished the elongating effect
